How the values were obtained:
HeLa cells = assay: Cell cycle analysis with HeLa cells; type: cell-based, human; settings: 18 hr
MAP-rich tubulin = assay: Tubulin polymerization test with MAP-rich tubulin; type: biochemical, bovine; settings: 0.3 μM compound, 20 min, fold enhancement over control
Procedure, shortened: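 Bovine brain MAP-rich tubulin (1.3 mg/mL) in PEM buffer pH 6.9 with 1 mM GTP, compounds at 0.3 μM final (0.3% DMSO), 24° for 60 min. Turbidity read at 340 nm each minute, baseline-subtracted; mean A340 at 20 min divided by solvent control gives fold enhancement.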

CC[C@]1(O)C[C@H]2CN(CCc3c([nH]c4ccccc34)[C@@](C(=O)OC)(c3cc4c(cc3OC)N(C=O)[C@H]3[C@@](O)(C(=O)OC)[C@H](OC(C)=O)[C@]5(CC)C=CCN6CC[C@]43[C@@H]65)C2)C1 [Vincristine, reference compound]
Percent in Cell Cycle Phase >4N (HeLa cells; 1 nM): 2% | Percent in Cell Cycle Phase Apop (HeLa cells; 1 nM): 6% | Percent in Cell Cycle Phase G1 (HeLa cells; 1 nM): 57% | Percent in Cell Cycle Phase G2/M (HeLa cells; 1 nM): 17% | Percent in Cell Cycle Phase S (HeLa cells; 1 nM): 18% | Percent in Cell Cycle Phase >4N (HeLa cells; 2 nM): 2% | Percent in Cell Cycle Phase Apop (HeLa cells; 2 nM): 8% | Percent in Cell Cycle Phase G1 (HeLa cells; 2 nM): 55% | Percent in Cell Cycle Phase G2/M (HeLa cells; 2 nM): 18% | Percent in Cell Cycle Phase S (HeLa cells; 2 nM): 18% | Percent in Cell Cycle Phase >4N (HeLa cells; 4 nM): 2% | Percent in Cell Cycle Phase Apop (HeLa cells; 4 nM): 9% | Percent in Cell Cycle Phase G1 (HeLa cells; 4 nM): 50% | Percent in Cell Cycle Phase G2/M (HeLa cells; 4 nM): 23% | Percent in Cell Cycle Phase S (HeLa cells; 4 nM): 17% | Percent in Cell Cycle Phase >4N (HeLa cells; 6 nM): 3% | Percent in Cell Cycle Phase Apop (HeLa cells; 6 nM): 11% | Percent in Cell Cycle Phase G1 (HeLa cells; 6 nM): 45% | Percent in Cell Cycle Phase G2/M (HeLa cells; 6 nM): 27% | Percent in Cell Cycle Phase S (HeLa cells; 6 nM): 15% | Percent in Cell Cycle Phase >4N (HeLa cells; 8 nM): 3% | Percent in Cell Cycle Phase Apop (HeLa cells; 8 nM): 12% | Percent in Cell Cycle Phase G1 (HeLa cells; 8 nM): 40% | Percent in Cell Cycle Phase G2/M (HeLa cells; 8 nM): 32% | Percent in Cell Cycle Phase S (HeLa cells; 8 nM): 14% | Percent in Cell Cycle Phase >4N (HeLa cells; 10 nM): 3% | Percent in Cell Cycle Phase Apop (HeLa cells; 10 nM): 16% | Percent in Cell Cycle Phase G1 (HeLa cells; 10 nM): 27% | Percent in Cell Cycle Phase G2/M (HeLa cells; 10 nM): 41% | Percent in Cell Cycle Phase S (HeLa cells; 10 nM): 13% | Percent in Cell Cycle Phase >4N (HeLa cells; 15 nM): 4% | Percent in Cell Cycle Phase Apop (HeLa cells; 15 nM): 19% | Percent in Cell Cycle Phase G1 (HeLa cells; 15 nM): 20% | Percent in Cell Cycle Phase G2/M (HeLa cells; 15 nM): 44% | Percent in Cell Cycle Phase S (HeLa cells; 15 nM): 14% | Percent in Cell Cycle Phase >4N (HeLa cells; 20 nM): 4% | Percent in Cell Cycle Phase Apop (HeLa cells; 20 nM): 18% | Percent in Cell Cycle Phase G1 (HeLa cells; 20 nM): 15% | Percent in Cell Cycle Phase G2/M (HeLa cells; 20 nM): 51% | Percent in Cell Cycle Phase S (HeLa cells; 20 nM): 12% | Percent in Cell Cycle Phase >4N (HeLa cells; 25 nM): 4% | Percent in Cell Cycle Phase Apop (HeLa cells; 25 nM): 17% | Percent in Cell Cycle Phase G1 (HeLa cells; 25 nM): 14% | Percent in Cell Cycle Phase G2/M (HeLa cells; 25 nM): 52% | Percent in Cell Cycle Phase S (HeLa cells; 25 nM): 13% | Percent in Cell Cycle Phase >4N (HeLa cells; 30 nM): 4% | Percent in Cell Cycle Phase Apop (HeLa cells; 30 nM): 19% | Percent in Cell Cycle Phase G1 (HeLa cells; 30 nM): 12% | Percent in Cell Cycle Phase G2/M (HeLa cells; 30 nM): 55% | Percent in Cell Cycle Phase S (HeLa cells; 30 nM): 11% | Percent in Cell Cycle Phase >4N (HeLa cells; 40 nM): 4% | Percent in Cell Cycle Phase Apop (HeLa cells; 40 nM): 18% | Percent in Cell Cycle Phase G1 (HeLa cells; 40 nM): 8% | Percent in Cell Cycle Phase G2/M (HeLa cells; 40 nM): 57% | Percent in Cell Cycle Phase S (HeLa cells; 40 nM): 13% | A340 Compound/A340 Control (MAP-rich tubulin): 0

From patent publication US7507739B2, “6-[(substituted)phenyl]triazolopyrimidines as anticancer agents” (Wyeth, priority 2003, dated 2009)
